This passage reports IC50 and EC50 results from patent US20250034136A1 (Nimbus Wadjet, Inc., priority 2023, published 2025).

Experiment [1] deals with WRN (BV08), human Werner helicase (Uniprot Q14191, amino acids 517-1235 with L1074F point mutation) (Homo sapiens (Human), UniProt Q14191, L1074F). Nature of the experiment: WRN (BV08) ADP-Glo assay. Conditions: class symbols A-E, read-out: ADP-Glo_hWRN_IC50. Format: biochemical.
The subject of experiment [2] is p21 induction in HCT116 cells. Kind of experiment: p21 induction in HCT116 cells. The format is cell-based. Conditions: Homo sapiens, HCT-116, 24 h, HCT116 cells, 24 h compound incubation; read-out: P21_EC50. Put shortly:
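EC50 from non-linear curve fit of p21 immunofluorescence (800 nm), with GAPDH (700 nm) read alongside. DMSO and a reference WRN inhibitor served as low and high controls. Cells (2,000/well) got 11 compound concentrations in duplicate for 24 h at 37 °C.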

Structures are written as SMILES.

WRN (BV08), human Werner helicase (Uniprot Q14191, amino acids 517-1235 with L1074F point mutation), sequence (Q14191 other isoform, or with tags, fused parts or gaps L1074F (already in the parent)): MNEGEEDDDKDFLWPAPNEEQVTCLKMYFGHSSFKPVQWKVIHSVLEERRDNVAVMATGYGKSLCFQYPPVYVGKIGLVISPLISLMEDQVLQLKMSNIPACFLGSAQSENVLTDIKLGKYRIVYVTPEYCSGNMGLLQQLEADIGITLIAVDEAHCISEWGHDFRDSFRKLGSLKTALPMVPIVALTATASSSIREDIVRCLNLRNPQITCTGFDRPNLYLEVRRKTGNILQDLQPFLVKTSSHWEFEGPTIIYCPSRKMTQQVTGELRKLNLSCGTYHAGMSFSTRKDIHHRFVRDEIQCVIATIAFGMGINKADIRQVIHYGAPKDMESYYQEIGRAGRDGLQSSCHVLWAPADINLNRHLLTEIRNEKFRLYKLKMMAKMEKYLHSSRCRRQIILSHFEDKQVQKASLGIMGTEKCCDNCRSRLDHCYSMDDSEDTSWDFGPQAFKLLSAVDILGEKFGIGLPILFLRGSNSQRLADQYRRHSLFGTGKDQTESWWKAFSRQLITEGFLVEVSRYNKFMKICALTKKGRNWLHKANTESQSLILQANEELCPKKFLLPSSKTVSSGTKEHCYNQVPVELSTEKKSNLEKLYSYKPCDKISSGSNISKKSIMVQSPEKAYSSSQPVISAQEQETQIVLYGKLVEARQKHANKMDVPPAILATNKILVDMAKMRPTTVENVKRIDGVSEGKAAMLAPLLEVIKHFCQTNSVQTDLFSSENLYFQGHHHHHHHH

For the molecule `CCc1c(N2CCN(C(=O)c3ncnc(C)c3O)CC2)c(=O)c2nc(N(C)[C@H]3CC[C@@H]3OC)cnc2n1CC(=O)Nc1ccc(C(F)(F)F)cc1Cl` (racemic) [I-143, rac-N-(2-chloro-4-(trifluoromethyl)phenyl)-2-(6-ethyl-7-(4-(5-hydroxy-6-methylpyrimidine-4-carbonyl)piperazin-1-yl)-2-((2-methoxycyclobutyl)(methyl)amino)-8-oxopyrido[2,3-b]pyrazin-5(8H)-yl)acetamide], the IC50 in experiment [1] fell in the range of 5 to 50 nM. In addition, the EC50 in experiment [2] lay in the range of 2000 to 5000 nM.
On to `CCc1c(N2CCN(C(=O)c3ncnc(C)c3O)CC2)c(=O)c2nc(C3CC3(F)F)cnc2n1CC(=O)Nc1ccc(C(F)(F)F)cc1Cl` (stereo in doubt) [I-237, N-[2-chloro-4-(trifluoromethyl)phenyl]-2-{2-[(1R)-2,2-difluorocyclopropyl]-6-ethyl-7-[4-(5-hydroxy-6-methylpyrimidine-4-carbonyl)piperazin-1-yl]-8-oxo-5H,8H-pyrido[2,3-b]pyrazin-5-yl}acetamide], for which, in experiment [1], the IC50 was 5 to 50 nM. Also, the EC50 in experiment [2] is greater than 5000 nM.
Regarding `CCc1c(N2CCN(C(=O)c3ncnc(C)c3O)CC2)c(=O)c2nc(N(C)CC)cnc2n1CC(=O)Nc1ccc(C(F)(F)F)cc1Cl` [I-74, N-(2-chloro-4-(trifluoromethyl)phenyl)-2-(6-ethyl-2-(ethyl(methyl)amino)-7-(4-(5-hydroxy-6-methylpyrimidine-4-carbonyl)piperazin-1-yl)-8-oxopyrido[2,3-b]pyrazin-5(8H)-yl)acetamide], the IC50 in experiment [1] was in the range of 5 to 50 nM. In addition, the EC50 in experiment [2] lay in the range of 500 to 2000 nM.
With `CCc1c(N2CCN(C(=O)c3ncnc(C)c3O)CC2)c(=O)c2nc3c(nc2n1CC(=O)Nc1ccc(C(F)(F)F)cc1Cl)CCN3C` [I-116, N-(2-chloro-4-(trifluoromethyl)phenyl)-2-(6-ethyl-7-(4-(5-hydroxy-6-methylpyrimidine-4-carbonyl)piperazin-1-yl)-1-methyl-8-oxo-1,2,3,8-tetrahydro-5H-pyrido[2,3-b]pyrrolo[2,3-e]pyrazin-5-yl)acetamide], the IC50 in experiment [1] lay in the range of 5 to 50 nM. Moreover, the EC50 in experiment [2] was 500 to 2000 nM.
`CCc1c(N2CCN(C(=O)c3ncnc(C)c3O)[C@@H]3CC[C@H]32)c(=O)c2nc(N(C)C3CC3)cnc2n1CC(=O)Nc1ccc(C(F)(F)F)cc1Cl` (single isomer, unassigned) [I-119, N-(2-chloro-4-(trifluoromethyl)phenyl)-2-(2-(cyclopropyl(methyl)amino)-6-ethyl-7-(5-(5-hydroxy-6-methylpyrimidine-4-carbonyl)-2,5-diazabicyclo[4.2.0]octan-2-yl)-8-oxopyrido[2,3-b]pyrazin-5(8H)-yl)acetamide]: the IC50 in experiment [1] lay within 5 to 50 nM. The EC50 in experiment [2] is less than 500 nM.
For `CCc1c(N2CCN(C(=O)c3ncccc3O)CC2)c(=O)c2ncc(C)nc2n1CC(=O)Nc1ccc(C(F)(F)F)cc1Cl` [I-3, N-(2-chloro-4-(trifluoromethyl)phenyl)-2-(6-ethyl-7-(4-(3-hydroxypicolinoyl)piperazin-1-yl)-3-methyl-8-oxopyrido[2,3-b]pyrazin-5(8H)-yl)acetamide], the IC50 in experiment [1] fell in the range of 5 to 50 nM. In experiment [2], the EC50 was greater than 5000 nM.
`CCc1c(N2CCN(C(=O)c3ncnc(C)c3O)CC2)c(=O)c2nc(N3CCNCC3)cnc2n1CC(=O)Nc1ccc(C(F)(F)F)cc1Cl` [I-89, N-(2-chloro-4-(trifluoromethyl)phenyl)-2-(6-ethyl-7-(4-(5-hydroxy-6-methylpyrimidine-4-carbonyl)piperazin-1-yl)-8-oxo-2-(piperazin-1-yl)pyrido[2,3-b]pyrazin-5(8H)-yl)acetamide]: the IC50 in experiment [1] is 100 to 500 nM. The EC50 in experiment [2] was greater than 5000 nM.
As for `CCc1c(N2CCN(C(=O)c3ncnc(C)c3O)C3(CCC3)C2)c(=O)c2nc(N(C)C)cnc2n1CC(=O)Nc1ccc(C(F)(F)F)cc1Cl` [I-216, N-[2-chloro-4-(trifluoromethyl)phenyl]-2-[2-(dimethylamino)-6-ethyl-7-[5-(5-hydroxy-6-methylpyrimidine-4-carbonyl)-5,8-diazaspiro[3.5]nonan-8-yl]-8-oxo-5H,8H-pyrido[2,3-b]pyrazin-5-yl]acetamide], the IC50 in experiment [1] lay within 50 to 100 nM. Further, the EC50 in experiment [2] was greater than 5000 nM.
Turning to `CCc1c(N2CCN(C(=O)c3ncnc(C)c3O)[C@H]3CC[C@@H]32)c(=O)c2nc(C)c(C)nc2n1CC(=O)Nc1ccc(C(F)(F)F)cc1F` [I-128, 2-(6-ethyl-7-((1S,6S)-5-(5-hydroxy-6-methylpyrimidine-4-carbonyl)-2,5-diazabicyclo[4.2.0]octan-2-yl)-2,3-dimethyl-8-oxopyrido[2,3-b]pyrazin-5(8H)-yl)-N-(2-fluoro-4-(trifluoromethyl)phenyl)acetamide], the IC50 in experiment [1] fell in the range of 5 to 50 nM. For the same molecule, the EC50 in experiment [2] is less than 500 nM.
For `CCc1c(N2CCN(C(=O)c3ncnc(C)c3O)[C@H]3CC[C@@H]32)c(=O)c2nc(N3CC[C@H]4C[C@H]43)cnc2n1CC(=O)Nc1ccc(C(F)(F)F)cc1F` (relative stereo) [I-122, 2-(2-((1R*,5S*)-2-azabicyclo[3.1.0]hexan-2-yl)-6-ethyl-7-((1S,6S)-5-(5-hydroxy-6-methylpyrimidine-4-carbonyl)-2,5-diazabicyclo[4.2.0]octan-2-yl)-8-oxopyrido[2,3-b]pyrazin-5(8H)-yl)-N-(2-fluoro-4-(trifluoromethyl)phenyl)acetamide], in experiment [1], the IC50 was no more than 5 nM. For the same molecule, in experiment [2], the EC50 is less than 500 nM.
As to `CCc1c(N2CCN(C(=O)c3c(OC)ncc(C)c3O)[C@H]3CC[C@@H]32)c(=O)c2nc(N(C)C)cnc2n1CC(=O)Nc1ccc(C(F)(F)F)cc1Cl` [I-261, N-[2-chloro-4-(trifluoromethyl)phenyl]-2-[2-(dimethylamino)-6-ethyl-7-[(1S,6S)-5-(4-hydroxy-2-methoxy-5-methylpyridine-3-carbonyl)-2,5-diazabicyclo[4.2.0]octan-2-yl]-8-oxo-5H,8H-pyrido[2,3-b]pyrazin-5-yl]acetamide], the IC50 in experiment [1] is 5 to 50 nM. In addition, in experiment [2], the EC50 was less than 500 nM.
With `CCc1c(N2CCN(C(=O)c3ncnc(C)c3O)[C@H]3CC[C@@H]32)c(=O)c2nc(OC3CC3)cnc2n1CC(=O)Nc1ccc(C(F)(F)F)cc1Cl` [I-102, N-(2-chloro-4-(trifluoromethyl)phenyl)-2-(2-cyclopropoxy-6-ethyl-7-((1S,6S)-5-(5-hydroxy-6-methylpyrimidine-4-carbonyl)-2,5-diazabicyclo[4.2.0]octan-2-yl)-8-oxopyrido[2,3-b]pyrazin-5(8H)-yl)acetamide], the IC50 in experiment [1] is no more than 5 nM. Further, the EC50 in experiment [2] was less than 500 nM.
For `CCc1c(N2CCN(C(=O)c3ncnc(C)c3O)[C@H]3CC[C@@H]32)c(=O)c2nc(N3CC[C@@H](O)C3)cnc2n1CC(=O)Nc1ccc(C(F)(F)F)cc1Cl` [I-270, N-[2-chloro-4-(trifluoromethyl)phenyl]-2-{6-ethyl-7-[(1S,6S)-5-(5-hydroxy-6-methylpyrimidine-4-carbonyl)-2,5-diazabicyclo[4.2.0]octan-2-yl]-2-[(3R)-3-hydroxypyrrolidin-1-yl]-8-oxo-5H,8H-pyrido[2,3-b]pyrazin-5-yl}acetamide], in experiment [1], the IC50 was in the range of 5 to 50 nM. For the same molecule, the EC50 in experiment [2] is 500 to 2000 nM.
As to `CCc1c(N2CCN(C(=O)c3ncnc(C)c3O)CC2)c(=O)c2nc(C3(C#N)CC3)cnc2n1CC(=O)Nc1ccc(C(F)(F)F)cc1Cl` [I-254, N-[2-chloro-4-(trifluoromethyl)phenyl]-2-[2-(1-cyanocyclopropyl)-6-ethyl-7-[4-(5-hydroxy-6-methylpyrimidine-4-carbonyl)piperazin-1-yl]-8-oxo-5H,8H-pyrido[2,3-b]pyrazin-5-yl]acetamide], the IC50 in experiment [1] lay in the range of 5 to 50 nM. Also, the EC50 in experiment [2] was in the range of 500 to 2000 nM.
Take `C=C(C)c1cnc2c(n1)c(=O)c(N1CCN(C(=O)c3ncnc(C)c3O)CC1)c(CC)n2CC(=O)Nc1ccc(C(F)(F)F)cc1Cl` [I-9, N-(2-chloro-4-(trifluoromethyl)phenyl)-2-(6-ethyl-7-(4-(5-hydroxy-6-methylpyrimidine-4-carbonyl)piperazin-1-yl)-8-oxo-2-(prop-1-en-2-yl)pyrido[2,3-b]pyrazin-5(8H)-yl)acetamide]: the IC50 in experiment [1] fell in the range of 5 to 50 nM. Besides, the EC50 in experiment [2] lay within 500 to 2000 nM.
In the case of `CCc1c(N2CCN(C(=O)c3c(OC)ncc(C)c3O)[C@H]3CC[C@@H]32)c(=O)c2nc(C)c(C)nc2n1CC(=O)Nc1ccc(C(F)(F)F)cc1Cl` [I-127, N-[2-chloro-4-(trifluoromethyl)phenyl]-2-{6-ethyl-7-[(1S,6S)-5-(4-hydroxy-2-methoxy-5-methylpyridine-3-carbonyl)-2,5-diazabicyclo[4.2.0]octan-2-yl]-2,3-dimethyl-8-oxo-5H,8H-pyrido[2,3-b]pyrazin-5-yl}acetamide], the IC50 in experiment [1] was 5 to 50 nM. Also, in experiment [2], the EC50 was less than 500 nM.
Regarding `CCc1c(N2CCN(C(=O)c3ncnc(C)c3O)CC2)c(=O)c2nc(N3CCCCC3)cnc2n1CC(=O)Nc1ccc(C(F)(F)F)cc1Cl` [I-42, N-(2-chloro-4-(trifluoromethyl)phenyl)-2-(6-ethyl-7-(4-(5-hydroxy-6-methylpyrimidine-4-carbonyl)piperazin-1-yl)-8-oxo-2-(piperidin-1-yl)pyrido[2,3-b]pyrazin-5(8H)-yl)acetamide], the IC50 in experiment [1] fell in the range of 5 to 50 nM. Moreover, the EC50 in experiment [2] lay in the range of 2000 to 5000 nM.
In the same order, the values of `CCc1c(N2CCN(C(=O)c3c(OCCOC)ncc(C)c3O)[C@H]3CC[C@@H]32)c(=O)c2nc(N(C)C)cnc2n1CC(=O)Nc1ccc(C(F)(F)F)cc1Cl` [I-282, N-[2-chloro-4-(trifluoromethyl)phenyl]-2-[2-(dimethylamino)-6-ethyl-7-[(1S,6S)-5-[4-hydroxy-2-(2-methoxyethoxy)-5-methylpyridine-3-carbonyl]-2,5-diazabicyclo[4.2.0]octan-2-yl]-8-oxo-5H,8H-pyrido[2,3-b]pyrazin-5-yl]acetamide] are 5 to 50 nM and less than 500 nM.
